From patent EP1282414B1, “FELBAMATE DERIVED COMPOUNDS FOR TREATING NEUROPATHIC PAIN” (University of Virginia Patent Foundation, priority 2000, dated 2001)
Marks after values point to notes of the source that are not given here.

Columns and labels:
[1] = test system: pentylenetetrazol; test: Subcutaneous Metrazol seizure test (scMET), rats p.o.; type: in vivo, Sprague-Dawley rats; conditions: po, rat
Excerpt: (§1) The fluoro derivatives synthesized were submitted to the National Institute of Neurological Disorders and Stroke (NINDS) for evaluation in a standard panel of assays. Two convulsant tests (MES and scMET), and a toxicity screen (rotorod in mice, positional sense and gait in rats) were employed for evaluating the compounds activity as neuroprotecting agents. These testing procedures are described in detail in Molecular and Cellular Targets for Anti-epileptic Drugs, eds. G. Avanzini, G. Regesta, P. Tanganelli, M. Avoli, 1997, John Libbey & Company Ltd, pp 191-198. The felbamate derivatives were evaluated for anticonvulsant activity following intraperitoneal (i.p.) administration in mice and oral administration in rats.
This is a model that primarily identifies compounds that raise seizure threshold. With some minor exceptions, the pharmacological profile of the scMET seizure model is consistent with the human condition. […]
For the MES and scMET tests the data is presented in the form of the number of animals protected by the administered compound / total number of animals tested. […] More extensive quantitative data was also obtained for fluoro felbamate 12 in mice (Table 3) and rats (Table 4).

[2] = test system: MES-induced seizure spread; test: Maximal Electroshock Seizure (MES) test, rats p.o.; type: in vivo, rat; conditions: for MES, number of animals protected / total number of animals tested: rat p.o., 30 mg/kg
Excerpt: as §1
The MES test is a model for generalized tonic-clonic seizures and is used to identify compounds which prevent seizure spread. The behavioral and electrographic seizures generated in this model are consistent with the human disorder. In the MES test, an electrical stimulus of 0.2 s in duration (50 mA in mice and 150 mA in rat at 60Hz) was delivered via corneal electrodes primed with an electrolyte solution containing an anesthetic agent. Mice were tested at 30 minutes and 4 hours following doses of 30, 100 and 300 mg/kg of test compound. Rats were tested at time intervals between 0.25 and 4 hours following a standard oral dose of 30 mg/kg. Abolition of the hindlimb tonic extensor component indicates the test compound's ability to inhibit MES-induced seizure spread.
For the MES and scMET tests the data is presented in the form of the number of animals protected by the administered compound / total number of animals tested. […] Qualitative data was obtained for fluoro felbamate 12 (Tables 1 and 2A), fluoro monocarbamate felbamate 13 (Tables 1 and 2B), and fluorodioxo 16 (Tables 1 and 2C) and for cyclic felbamate 21 (Tables 5 and 6B) and cyclic monocarbamate 22 (Tables 5 and 6A). More extensive quantitative data was also obtained for fluoro felbamate 12 in mice (Table 3) and rats (Table 4).

[3] = test system: seizures; test: NINDS standard panel of assays (MES, scMET, toxicity screen), overall; type: in vivo; conditions: relative to felbamate
Excerpt: as §1

[4] = test system: focal seizures; test: Hippocampal kindling model (kindled rats), i.p.; type: in vivo, adult male Sprague-Dawley rats; set-up: key to Seizure Score ± S.E.M.: Racine seizure score (stage 5 = generalized seizure); conditions: for Number Protected / Number Tested / Afterdischarge Duration (sec) ± S.E.M / Seizure Score ± S.E.M.: i.p.
Excerpt: The hippocampal kindling model can be used to evaluate a compound's ability to affect both the expression and acquisition of focal seizures. The hippocampal kindling paradigm as described by Lothman and Williamson (Lothman, 1994) allows the temporal effects of a drug to be evaluated in a single animal. This procedure requires the surgical placement ofbipolar electrodes in the ventral hippocampus of adult male Sprague-Dawley rats. Stage five behavioral seizures are produced by using a stimulus consisting of a 50 Hz, 10 s train of 1 ms biphasic 200 uA pulses delivered every 30 min for 6 hours (12 stimuli per day) on alternating days for a total of 60 stimulations (five stimulus days). Prior to evaluating a candidate's anticonvulsant activity, a drug free control period consisting of supramaximal stimulations are recorded to verify the stability of a stage five generalized seizure.
A single dose of the candidate compound is then administered intraperitoneally (i.p.), 15 min following the last control stimulation. The anticonvulsant activity of the drug is assessed every 30 min for three to four hours starting 15 min after administering the test material. After each stimulation, individual Racine seizure scores and afterdischarge durations are recorded. Rats are used again in drug trials after four to five drug- and stimulus-free days.

[5] = Dose Responses, 25 mg/kg (time not given)
[6] = Dose Responses, 50 mg/kg (time not given)
[7] = Dose Responses, 100 mg/kg (time not given)

Which ED50 [1] does the source give for `NC(=O)OCC(F)(COC(N)=O)c1ccccc1` [fluoro felbamate, 2-Fluoro-2-phenyl-1,3-propanediol dicarbamate] here?
Its ED50 is > 250 mg/kg.

And the ED50 ([2]; Rattus norvegicus, po, read-out: MES ED50, rat, p.o.)?
The ED50 was ~3 mg/kg.

And the “MES, number of animals protected / total number of animals tested” value ([2]; 0.25h)?
Its value is 2/4.

And the “MES, number of animals protected / total number of animals tested” value ([2]; 0.5h)?
The value was 4/4.

And the “MES, number of animals protected / total number of animals tested” value ([2]; 1.0h)?
The value was 4/4.

What about the “MES, number of animals protected / total number of animals tested” value ([2]; 2.0h) of the same compound?
The value was 4/4.

And the “MES, number of animals protected / total number of animals tested” value ([2]; 4.0h)?
The value was 4/4.

And the “times more active than felbamate” value [3]?
The value was 5-10 times.

And the “change in afterdischarge duration (in words)” value ([4]; 100mg/kg)?
Its value is “corresponding decrease”.

What about the “change in seizure score (in words)” value ([4]; 100mg/kg) of the same compound?
Its value is “significant drop”.

And the “Number Protected / Number Tested” value ([4]; Dose Responses, 25 mg/kg)?
Its value is 0/7.

And the “Afterdischarge Duration (sec) ± S.E.M” value [4, 5]?
Its value is 71.43 ± 5.50 s.

What about the “Seizure Score ± S.E.M.” value [4, 5] of the same compound?
Its value is 4.57 ± 0.20.

What about the “Number Protected / Number Tested” value ([4]; Dose Responses, 50 mg/kg) of the same compound?
The value was 3/7.

What about the “Afterdischarge Duration (sec) ± S.E.M” value [4, 6] of the same compound?
Its value is 68.57 ± 20.14 s.

And the “Seizure Score ± S.E.M.” value [4, 6]?
The value was 2.86 ± 0.83.

And the “Number Protected / Number Tested” value ([4]; Dose Responses, 100 mg/kg)?
The value was 7/8^a.

And the “Afterdischarge Duration (sec) ± S.E.M” value [4, 7]?
The value was 29.00 ± 10.86 s.

What about the “Seizure Score ± S.E.M.” value [4, 7] of the same compound?
The value was 1.50 ± 0.57.

And the “Afterdischarge Duration (sec) ± S.E.M” value ([4]; 25 mg/kg, 15 min)?
Its value is 77.29 ± 4.91 s.

What about the “Seizure Score ± S.E.M.” value ([4]; 25 mg/kg, 15 min) of the same compound?
The value was 4.86 ± 0.14.

What about the “Afterdischarge Duration (sec) ± S.E.M” value ([4]; 25 mg/kg, 45 min) of the same compound?
Its value is 71.43 ± 5.50 s.

What about the “Seizure Score ± S.E.M.” value ([4]; 25 mg/kg, 45 min) of the same compound?
Its value is 4.57 ± 0.20.

What about the “Afterdischarge Duration (sec) ± S.E.M” value ([4]; 25 mg/kg, 75 min) of the same compound?
Its value is 64.43 ± 11.19 s.

What about the “Seizure Score ± S.E.M.” value ([4]; 25 mg/kg, 75 min) of the same compound?
Its value is 4.00 ± 0.69.

And the “Afterdischarge Duration (sec) ± S.E.M” value ([4]; 25 mg/kg, 105 min)?
Its value is 70.29 ± 4.85 s.

What about the “Seizure Score ± S.E.M.” value ([4]; 25 mg/kg, 105 min) of the same compound?
The value was 4.57 ± 0.20.

What about the “Afterdischarge Duration (sec) ± S.E.M” value ([4]; 25 mg/kg, 135 min) of the same compound?
The value was 53.86 ± 9.33 s.

And the “Seizure Score ± S.E.M.” value ([4]; 25 mg/kg, 135 min)?
Its value is 4.43 ± 0.57.

What about the “Afterdischarge Duration (sec) ± S.E.M” value ([4]; 25 mg/kg, 165 min) of the same compound?
Its value is 59.29 ± 3.28 s.

What about the “Seizure Score ± S.E.M.” value ([4]; 25 mg/kg, 165 min) of the same compound?
The value was 4.71 ± 0.18.

And the “Afterdischarge Duration (sec) ± S.E.M” value ([4]; 25 mg/kg, 195 min)?
The value was 54.00 ± 9.62 s.

What about the “Seizure Score ± S.E.M.” value ([4]; 25 mg/kg, 195 min) of the same compound?
The value was 3.86 ± 0.67.

What about the “Afterdischarge Duration (sec) ± S.E.M” value ([4]; 25 mg/kg, 225 min) of the same compound?
Its value is 53.29 ± 9.03 s.

And the “Seizure Score ± S.E.M.” value ([4]; 25 mg/kg, 225 min)?
Its value is 4.00 ± 0.69.

And the “Afterdischarge Duration (sec) ± S.E.M” value ([4]; 25 mg/kg, 255 min)?
The value was 64.00 ± 3.42 s.

And the “Seizure Score ± S.E.M.” value ([4]; 25 mg/kg, 255 min)?
The value was 4.86 ± 0.14.

What about the “Afterdischarge Duration (sec) ± S.E.M” value ([4]; 50 mg/kg, 15 min) of the same compound?
Its value is 67.14 ± 12.39 s.

And the “Seizure Score ± S.E.M.” value ([4]; 50 mg/kg, 15 min)?
Its value is 3.86 ± 0.70.

What about the “Afterdischarge Duration (sec) ± S.E.M” value ([4]; 50 mg/kg, 45 min) of the same compound?
The value was 68.57 ± 20.14 s.

What about the “Seizure Score ± S.E.M.” value ([4]; 50 mg/kg, 45 min) of the same compound?
The value was 2.86 ± 0.83.

And the “Afterdischarge Duration (sec) ± S.E.M” value ([4]; 50 mg/kg, 75 min)?
The value was 63.00 ± 17.45 s.

What about the “Seizure Score ± S.E.M.” value ([4]; 50 mg/kg, 75 min) of the same compound?
Its value is 3.14 ± 0.83.

What about the “Afterdischarge Duration (sec) ± S.E.M” value ([4]; 50 mg/kg, 105 min) of the same compound?
The value was 60.86 ± 14.93 s.

What about the “Seizure Score ± S.E.M.” value ([4]; 50 mg/kg, 105 min) of the same compound?
The value was 3.43 ± 0.90.

And the “Afterdischarge Duration (sec) ± S.E.M” value ([4]; 50 mg/kg, 135 min)?
Its value is 65.00 ± 13.10 s.

And the “Seizure Score ± S.E.M.” value ([4]; 50 mg/kg, 135 min)?
Its value is 3.71 ± 0.64.

And the “Afterdischarge Duration (sec) ± S.E.M” value ([4]; 50 mg/kg, 165 min)?
Its value is 43.14 ± 14.67 s.

And the “Seizure Score ± S.E.M.” value ([4]; 50 mg/kg, 165 min)?
The value was 2.71 ± 0.97.

What about the “Afterdischarge Duration (sec) ± S.E.M” value ([4]; 50 mg/kg, 195 min) of the same compound?
The value was 52.86 ± 14.59 s.

What about the “Seizure Score ± S.E.M.” value ([4]; 50 mg/kg, 195 min) of the same compound?
The value was 3.14 ± 0.83.

And the “Afterdischarge Duration (sec) ± S.E.M” value ([4]; 50 mg/kg, 225 min)?
The value was 39.86 ± 10.98 s.

And the “Seizure Score ± S.E.M.” value ([4]; 50 mg/kg, 225 min)?
The value was 3.00 ± 0.87.

And the “Afterdischarge Duration (sec) ± S.E.M” value ([4]; 50 mg/kg, 255 min)?
The value was 33.29 ± 11.76 s.

What about the “Seizure Score ± S.E.M.” value ([4]; 50 mg/kg, 255 min) of the same compound?
The value was 2.57 ± 0.72.

What about the “Afterdischarge Duration (sec) ± S.E.M” value ([4]; 100 mg/kg, 15 min) of the same compound?
The value was 40.75 ± 15.74 s.

And the “Seizure Score ± S.E.M.” value ([4]; 100 mg/kg, 15 min)?
Its value is 1.75 ± 0.73.

And the “Afterdischarge Duration (sec) ± S.E.M” value ([4]; 100 mg/kg, 45 min)?
The value was 29.00 ± 10.86 s.

And the “Seizure Score ± S.E.M.” value ([4]; 100 mg/kg, 45 min)?
Its value is 1.50 ± 0.57.

What about the “Afterdischarge Duration (sec) ± S.E.M” value ([4]; 100 mg/kg, 75 min) of the same compound?
Its value is 38.63 ± 12.58 s.

What about the “Seizure Score ± S.E.M.” value ([4]; 100 mg/kg, 75 min) of the same compound?
The value was 1.88 ± 0.67.

What about the “Afterdischarge Duration (sec) ± S.E.M” value ([4]; 100 mg/kg, 105 min) of the same compound?
The value was 53.38 ± 12.59 s.

What about the “Seizure Score ± S.E.M.” value ([4]; 100 mg/kg, 105 min) of the same compound?
The value was 2.38 ± 0.65.

And the “Afterdischarge Duration (sec) ± S.E.M” value ([4]; 100 mg/kg, 135 min)?
Its value is 33.63 ± 12.88 s.

What about the “Seizure Score ± S.E.M.” value ([4]; 100 mg/kg, 135 min) of the same compound?
The value was 2.00 ± 0.76.

What about the “Afterdischarge Duration (sec) ± S.E.M” value ([4]; 100 mg/kg, 165 min) of the same compound?
Its value is 43.38 ± 12.79 s.

What about the “Seizure Score ± S.E.M.” value ([4]; 100 mg/kg, 165 min) of the same compound?
The value was 2.75 ± 0.65.

What about the “Afterdischarge Duration (sec) ± S.E.M” value ([4]; 100 mg/kg, 195 min) of the same compound?
Its value is 45.25 ± 13.33 s.

And the “Seizure Score ± S.E.M.” value ([4]; 100 mg/kg, 195 min)?
The value was 2.25 ± 0.70.

And the “Afterdischarge Duration (sec) ± S.E.M” value ([4]; 100 mg/kg, 225 min)?
Its value is 47.38 ± 14.80 s.

And the “Seizure Score ± S.E.M.” value ([4]; 100 mg/kg, 225 min)?
The value was 2.50 ± 0.73.

What about the “Afterdischarge Duration (sec) ± S.E.M” value ([4]; 100 mg/kg, 255 min) of the same compound?
The value was 45.38 ± 13.92 s.

And the “Seizure Score ± S.E.M.” value ([4]; 100 mg/kg, 255 min)?
Its value is 2.50 ± 0.65.
